Results from patent US20030166653A1, “Novel form of (r)-n-[5-methyl-8-(4-methylpiperazin-1-yl)-1,2,3,4-tetrahydro-2-naphthyl]-4-morpholinobenzamide” (priority 2003, published 2003).
Converted amounts (≈) assume the structure as drawn.

Tests used:
Type in all cases: physicochemical
[1] = Stability of bulk drug substance (HPLC purity) in daylight and at 90° C.; settings: for HPLC Purity (100% - related substances): bulk
Experimental: The stability of [5-Methyl-8-(4-methylpiperazin-1-yl)-1,2,3,4-tetrahydro-2-naphtyl]-4-morpholinobenzamide(=“Base” in tables below) and (R)-N-[5-methyl-8-(4-methylpiperazin-1-yl)-1,2,3,4-tetrahydro-2-naphtyl]-4-morpholinobenzamide monohydrobromide Form A (=“Form A” in tables below), as bulk drug substance and in solutions at different pH levels after exposure to daylight and at elevated temperatures, has been studied. The bulk substances are very stable, both in daylight and at 90° C. There are no significant differences between the HPLC purity of [5-Methyl-8-(4-methylpiperazin-1-yl)-1,2,3,4-tetrahydro-2-naphtyl]-4-morpholinobenzamide (=Base) and (R)-N-[5-methyl-8-(4-methylpiperazin-1-yl)-1,2,3,4-tetrahydro-2-naphtyl]-4-morpholinobenzamide monohydrobromide Form A (=Form A) at the tested conditions.

[2] = Stability of solution in 0.1 M HCl, pH 1.1, HPLC assay
Text: (§1) The stability of [5-Methyl-8-(4-methylpiperazin-1-yl)-1,2,3,4-tetrahydro-2-naphtyl]-4-morpholinobenzamide(=“Base” in tables below) and (R)-N-[5-methyl-8-(4-methylpiperazin-1-yl)-1,2,3,4-tetrahydro-2-naphtyl]-4-morpholinobenzamide monohydrobromide Form A (=“Form A” in tables below), as bulk drug substance and in solutions at different pH levels after exposure to daylight and at elevated temperatures, has been studied. Three solutions were made from each batch of drug substance. One solution in pure water, one in 0.1 mM HCl (pH 4.1) and one in 0.1 M HCl (pH 1.1). The content of [5-Methyl-8-(4-methylpiperazin-1-yl)-1,2,3,4-tetrahydro-2-naphtyl]-4-morpholinobenzamide (=Base) was determined by HPLC, all results are calculated as the base.

[3] = Stability of solution in 0.1 mM HCl, pH 4.1, HPLC assay
Text: as §1

[4] = Solubility in water by HPLC-analysis; settings: as the free base by HPLC-analysis
[5] = Stability in water solutions (pH not adjusted), HPLC assay
Text: as §1

[6] = daylight RT, 14 days, % of start
[7] = daylight RT, 23 days, % of start

HPLC Purity (100% - related substances) ([1]; 90° C., 2 days): 99.9% | HPLC Purity (100% - related substances) ([1]; 90° C., 8 days): 99.9% | HPLC Purity (100% - related substances) ([1]; 90° C., 14 days): 99.9% | HPLC Purity (100% - related substances) ([1]; 90° C., 21 days): 99.9% | HPLC Purity (100% - related substances) ([1]; 90° C., 30 days): 99.9% | HPLC Purity (100% - related substances) ([1]; 90° C., Start): 100% | HPLC Purity (100% - related substances) ([1]; daylight, RT, 8 days): 99.9% | HPLC Purity (100% - related substances) ([1]; daylight, RT, 14 days): 99.9% | HPLC Purity (100% - related substances) ([1]; daylight, RT, 21 days): 99.9% | HPLC Purity (100% - related substances) ([1]; daylight, RT, 30 days): 99.9% | HPLC Purity (100% - related substances) ([1]; daylight, RT, Start): 100% | stability of bulk substance in words ([1]; in daylight and at 90° C.): very stable | Solution in 0.1 M HCl, pH 1.1, assay ([2]; 5° C., 8 days, % of start): 99% | Solution in 0.1 M HCl, pH 1.1, assay ([2]; 5° C., 14 days, % of start): 100% | Solution in 0.1 M HCl, pH 1.1, assay ([2]; 5° C., 23 days, % of start): 97% | Solution in 0.1 M HCl, pH 1.1, assay ([2]; 5° C., Start): 0.479 mg base/ml | Solution in 0.1 M HCl, pH 1.1, assay ([2]; 5° C., Start, % of start): (100%) | Solution in 0.1 M HCl, pH 1.1, assay ([2]; 60° C., 2 days, % of start): 98% | Solution in 0.1 M HCl, pH 1.1, assay ([2]; 60° C., 8 days, % of start): 96% | Solution in 0.1 M HCl, pH 1.1, assay ([2]; 60° C., 14 days, % of start): 91% | Solution in 0.1 M HCl, pH 1.1, assay ([2]; 60° C., 23 days, % of start): 83% | Solution in 0.1 M HCl, pH 1.1, assay ([2]; 60° C., Start): 0.479 mg base/ml | Solution in 0.1 M HCl, pH 1.1, assay ([2]; 60° C., Start, % of start): (100%) | Solution in 0.1 M HCl, pH 1.1, assay ([2]; Dark RT, 8 days, % of start): 100% | Solution in 0.1 M HCl, pH 1.1, assay ([2]; Dark RT, 14 days, % of start): 100% | Solution in 0.1 M HCl, pH 1.1, assay ([2]; Dark RT, 23 days, % of start): 98% | Solution in 0.1 M HCl, pH 1.1, assay ([2]; Dark RT, Start): 0.479 mg base/ml | Solution in 0.1 M HCl, pH 1.1, assay ([2]; Dark RT, Start, % of start): (100%) | Solution in 0.1 M HCl, pH 1.1, assay [2, 6]: 100% | Solution in 0.1 M HCl, pH 1.1, assay [2, 7]: 98% | Solution in 0.1 M HCl, pH 1.1, assay ([2]; daylight RT, Start): 0.479 mg base/ml | Solution in 0.1 M HCl, pH 1.1, assay ([2]; daylight RT, Start, % of start): (100%) | stability in solution, comparison in words ([2]; pH 1.1, 60° C.): less stable than Form A | stability in solution in words ([2]; pH 1.1, except at 60° C.): good | Solution in 0.1 mM HCl, pH 4.1, assay ([3]; 5° C., 8 days, % of start): 100% | Solution in 0.1 mM HCl, pH 4.1, assay ([3]; 5° C., 14 days, % of start): 99% | Solution in 0.1 mM HCl, pH 4.1, assay ([3]; 5° C., 23 days, % of start): 99% | Solution in 0.1 mM HCl, pH 4.1, assay ([3]; 5° C., Start): 0.0443 mg base/ml | Solution in 0.1 mM HCl, pH 4.1, assay ([3]; 5° C., Start, % of start): (100%) | Solution in 0.1 mM HCl, pH 4.1, assay ([3]; 60° C., 2 days, % of start): 96% | Solution in 0.1 mM HCl, pH 4.1, assay ([3]; 60° C., 8 days, % of start): 93% | Solution in 0.1 mM HCl, pH 4.1, assay ([3]; 60° C., 14 days, % of start): 67% | Solution in 0.1 mM HCl, pH 4.1, assay ([3]; 60° C., 23 days, % of start): 57% | Solution in 0.1 mM HCl, pH 4.1, assay ([3]; 60° C., Start): 0.0443 mg base/ml | Solution in 0.1 mM HCl, pH 4.1, assay ([3]; 60° C., Start, % of start): (100%) | Solution in 0.1 mM HCl, pH 4.1, assay ([3]; Dark RT, 8 days, % of start): 99% | Solution in 0.1 mM HCl, pH 4.1, assay ([3]; Dark RT, 14 days, % of start): 98% | Solution in 0.1 mM HCl, pH 4.1, assay ([3]; Dark RT, 23 days, % of start): 97% | Solution in 0.1 mM HCl, pH 4.1, assay ([3]; Dark RT, Start): 0.0443 mg base/ml | Solution in 0.1 mM HCl, pH 4.1, assay ([3]; Dark RT, Start, % of start): (100%) | Solution in 0.1 mM HCl, pH 4.1, assay [3, 6]: 98% | Solution in 0.1 mM HCl, pH 4.1, assay [3, 7]: 98% | Solution in 0.1 mM HCl, pH 4.1, assay ([3]; daylight RT, Start): 0.0443 mg base/ml | Solution in 0.1 mM HCl, pH 4.1, assay ([3]; daylight RT, Start, % of start): (100%) | stability in solution, comparison in words ([3]; pH 4.1, 60° C. (more pronounced than at pH 1.1)): less stable than Form A | stability in solution in words ([3]; pH 4.1, except at 60° C.): good | solubility in water [4]: 34 µg/mL (≈ 75.8 µM) | Stability in water solutions, assay ([5]; 5° C., 8 days, % of start): 101% | Stability in water solutions, assay ([5]; 5° C., 14 days, % of start): 101% | Stability in water solutions, assay ([5]; 5° C., 23 days, % of start): 102% | Stability in water solutions, assay ([5]; 5° C., Start): 0.00698 mg base/ml | Stability in water solutions, assay ([5]; 5° C., Start, % of start): (100%) | Stability in water solutions, assay ([5]; 60° C., 2 days, % of start): 105% | Stability in water solutions, assay ([5]; 60° C., 8 days, % of start): 104% | Stability in water solutions, assay ([5]; 60° C., 14 days, % of start): 106% | Stability in water solutions, assay ([5]; 60° C., 23 days, % of start): 102% | Stability in water solutions, assay ([5]; 60° C., Start): 0.00698 mg base/ml | Stability in water solutions, assay ([5]; 60° C., Start, % of start): (100%) | Stability in water solutions, assay ([5]; Dark RT, 8 days, % of start): 94% | Stability in water solutions, assay ([5]; Dark RT, 14 days, % of start): 94% | Stability in water solutions, assay ([5]; Dark RT, 23 days, % of start): 95% | Stability in water solutions, assay ([5]; Dark RT, Start): 0.00698 mg base/ml | Stability in water solutions, assay ([5]; Dark RT, Start, % of start): (100%) | Stability in water solutions, assay ([5]; daylight RT, 8 days, % of start): 95% | Stability in water solutions, assay [5, 6]: 94% | Stability in water solutions, assay [5, 7]: 91% | Stability in water solutions, assay ([5]; daylight RT, Start): 0.00698 mg base/ml | Stability in water solutions, assay ([5]; daylight RT, Start, % of start): (100%) | stability in pure water solution, comparison in words ([5]; room temperature, pH not adjusted): less stable than Form A
SMILES: Cc1ccc(N2CCN(C)CC2)c2c1CCC(NC(=O)c1ccc(N3CCOCC3)cc1)C2 (stereo not shown) [Base, [5-Methyl-8-(4-methylpiperazin-1-yl)-1,2,3,4-tetrahydro-2-naphtyl]-4-morpholinobenzamide]
